The text below walks through data of patent publication US9795548B2, “Oral care compositions” (Colgate-Palmolive Company, priority 2012, dated 2017).

What all share (type): cell-based
One test deals with PGE2. Put plainly: Mat Tek PGE2 tissue model, anti-inflammatory activity. The note with it: dentifrice slurry 1:4 in PBS, base dentifrice with 1% active; 2 minutes treatment; IL-β about 10 ng/ml. The method, then:
Anti-inflammatory activity of IPM is evaluated using the Mat Tek PGE2 tissue model.
One (1) mL of tissue culture media (supplied by MatTek) is added to each well of a 6-well plate (×4). The plate is incubated overnight (37° C., 5% CO2). Treatment solutions comprising the dentifrice slurries are prepared, wherein the base dentifrice contains 1% isopropyl magnolol. Slurries of the dentifrices are prepared in a 1:4 ratio by weight of dentifrice:phosphate buffered saline (PBS). Slurries are placed on a stir plate for a minimum of 30 minutes to allow the solution to fully homogenize.
The tissue media is prepared by adding IL-β from a frozen stock solution to the tissue culture media. The final concentration of IL-β in the media is about 10 ng/ml.
1 ml of tissue culture media containing IL-β is added to each well of a 6-well plate (×4). […] of treatment solution is then added to the surface of the tissue and let sit for 2 minutes. The treatment solution is removed by aspiration.
The tissue is then washed using about 200 μl of PBS. PBS is then removed by aspiration, and the process is repeated for a total of 3 washes.
Tissue is then transferred the original 6-well plates to new 6-well plates with media containing IL-β. The plates are incubated (37° C., 5% CO2) for between 7 and 24 hours, depending on the active or dentifrice being tested.
The used media from the old 6-well plates is pipetted into a single 24-well plate, for use as a baseline sample. The plates are removed from the incubator and the used media is pipetted from the 6-well plates into a single 24-well plate, for use as a reference sample for the designated time point. The results of this assay are described in Table 3 (below).

A further test relates to A. actinomycetemcomitans. In words: Minimum Inhibitory Concentration (MIC), two-fold dilutions in trypticase soy broth. The note with it: Aggregatibacter actinomycetemcomitans, 18-24 hours of incubation. The method, then: (§1) Minimum Inhibitory Concentration (MIC) values are determined generally according to the following method: A series of two-fold dilutions in trypticase soy broth (Catalog No. 211768; Becton Dickinson, Franklin Lakes N.J.) are prepared in a 96 well plate and a constant amount of bacteria is then added to each well. After 18-24 hours of incubation, bacterial growth is measured with a Spectrophotometric Micro-plate Reader (Powerwave 5×, BioTEK, Winooski Vt.) and the MIC values are determined.
(§2) Table 4 (below) describes the antibacterial efficacy of isopropyl magnolol against various oral pathogens.

The subject of a further test is Streptoccus mutans. The description is as above. The method, then: as §1, §2
The test system of a further test is Actinomyces viscosus. The description is as above. The conditions noted are these: 18-24 hours of incubation. The method, then:
as §1, §2

A further test concerns Streptococcus sanguis. The test is described as above. The conditions noted are these: 18-24 hours of incubation. The method, then: as §1, §2
The test system of another test is Fusobcaterium nucleatum. The test is described as above. The method, then:
as §1, §2

In brackets after ≈: the same amount, converted by molar mass.

Regarding `CCCCc1ccc(O)c(-c2cc(CCCC)ccc2O)c1` [Butyl magnolol], the “PGE2 reduction (%)” value in the test with PGE2 was found to be 29.98%.

For the compound `CC(C)c1ccc(O)c(-c2cc(C(C)C)ccc2O)c1` [Isopropyl magnolol, 5,5′-diisopropyl-2,2′-dihydroxy biphenol], the MIC is 3.9 µg/mL (≈ 14.4 µM) in the test with A. actinomycetemcomitans; 3.9 µg/mL (≈ 14.4 µM) against Streptoccus mutans; 3.9 µg/mL (≈ 14.4 µM) against Actinomyces viscosus; 1.95 µg/mL (≈ 7.21 µM) with Streptococcus sanguis; 0.97 µg/mL (≈ 3.59 µM) against Fusobcaterium nucleatum. Moreover, the “PGE2 reduction (%)” value with PGE2 amounted to 90.88%.

Regarding `C=CCc1ccc(O)c(-c2cc(CC=C)ccc2O)c1` [Magnolol, 5,5′-Diallyl-biphenyl-2,2′-diol], the MIC in the test with A. actinomycetemcomitans is 15.6 µg/mL (≈ 58.6 µM); against Streptoccus mutans it was 15.6 µg/mL (≈ 58.6 µM); in the test with Actinomyces viscosus it was 15.6 µg/mL (≈ 58.6 µM); in the test with Streptococcus sanguis it was 15.6 µg/mL (≈ 58.6 µM); with Fusobcaterium nucleatum it was 7.8 µg/mL (≈ 29.3 µM). For the same compound, the “PGE2 reduction (%)” value in the test with PGE2 is on record as 88.23%.
